Measured values taken from PubChem BioAssay (NCI).
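Cells were grown in 96-well plates and exposed to each compound for 48 hours at five concentrations; endpoints were interpolated linearly between bracketing concentrations, or set to the highest concentration if not reached. GI50 is the concentration that inhibits growth by half. TGI marks complete inhibition of growth.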

How the values were obtained:
Assay in all cases: growth of human tumour cells (NCI), 48 h
786-0 renal = tested on: 786-0 renal
A498 renal = tested on: A498 renal
A549 NSCLC = tested on: A549 NSCLC
ACHN renal = tested on: ACHN renal
BT-549 breast = tested on: BT-549 breast
CAKI-1 renal = tested on: CAKI-1 renal
CCRF-CEM leukemia = tested on: CCRF-CEM leukemia
COLO 205 colon = tested on: COLO 205 colon
DU-145 prostate = tested on: DU-145 prostate
EKVX NSCLC = tested on: EKVX NSCLC
HCC-2998 colon = tested on: HCC-2998 colon
HCT-116 colon = tested on: HCT-116 colon
HCT-15 colon = tested on: HCT-15 colon
HL-60(TB) leukemia = tested on: HL-60(TB) leukemia
HOP-62 NSCLC = tested on: HOP-62 NSCLC
HOP-92 NSCLC = tested on: HOP-92 NSCLC
HS 578T breast = tested on: HS 578T breast
HT29 colon = tested on: HT29 colon
IGROV1 ovarian = tested on: IGROV1 ovarian
K-562 leukemia = tested on: K-562 leukemia
KM12 colon = tested on: KM12 colon
LOX IMVI melanoma = tested on: LOX IMVI melanoma
M14 melanoma = tested on: M14 melanoma
MALME-3M melanoma = tested on: MALME-3M melanoma
MCF7 breast = tested on: MCF7 breast
MDA-MB-231 breast = tested on: MDA-MB-231 breast
MDA-MB-435 = tested on: MDA-MB-435
MDA-MB-468 breast = tested on: MDA-MB-468 breast
MOLT-4 leukemia = tested on: MOLT-4 leukemia
NCI-H226 lung = tested on: NCI-H226 lung
NCI-H23 lung = tested on: NCI-H23 lung
NCI-H460 lung = tested on: NCI-H460 lung
NCI-H522 lung = tested on: NCI-H522 lung
NCI/ADR-RES ovarian = tested on: NCI/ADR-RES ovarian
OVCAR-3 ovarian = tested on: OVCAR-3 ovarian
OVCAR-4 ovarian = tested on: OVCAR-4 ovarian
OVCAR-5 ovarian = tested on: OVCAR-5 ovarian
OVCAR-8 ovarian = tested on: OVCAR-8 ovarian
PC-3 prostate = tested on: PC-3 prostate
RPMI-8226 leukemia = tested on: RPMI-8226 leukemia
RXF 393 renal = tested on: RXF 393 renal
SF-268 CNS = tested on: SF-268 CNS
SF-295 CNS = tested on: SF-295 CNS
SF-539 CNS = tested on: SF-539 CNS
SK-MEL-2 melanoma = tested on: SK-MEL-2 melanoma
SK-MEL-28 melanoma = tested on: SK-MEL-28 melanoma
SK-MEL-5 melanoma = tested on: SK-MEL-5 melanoma
SK-OV-3 ovarian = tested on: SK-OV-3 ovarian
SN12C renal = tested on: SN12C renal
SNB-19 CNS = tested on: SNB-19 CNS
SNB-75 CNS = tested on: SNB-75 CNS
SR leukemia = tested on: SR leukemia
SW-620 colon = tested on: SW-620 colon
T-47D breast = tested on: T-47D breast
TK-10 renal = tested on: TK-10 renal
U251 CNS = tested on: U251 CNS
UACC-257 melanoma = tested on: UACC-257 melanoma
UACC-62 melanoma = tested on: UACC-62 melanoma
UO-31 renal = tested on: UO-31 renal

Cc1ccc(-c2cc(C(=O)N=Nc3c(O)[nH]c4ccc(F)cc34)c3ccccc3n2)cc1
GI50 (786-0 renal): 16.6 µM | TGI (786-0 renal): 39.1 µM | GI50 (A498 renal): 19 µM | TGI (A498 renal): 34.1 µM | GI50 (A549 NSCLC): 5.21 µM | TGI (A549 NSCLC): 22.6 µM | GI50 (ACHN renal): 12.7 µM | TGI (ACHN renal): 26 µM | GI50 (BT-549 breast): 10.7 µM | TGI (BT-549 breast): 25.7 µM | GI50 (CAKI-1 renal): 12.2 µM | TGI (CAKI-1 renal): 27.3 µM | GI50 (CCRF-CEM leukemia): 2.11 µM | TGI (CCRF-CEM leukemia): > 100 µM | GI50 (COLO 205 colon): 15.7 µM | TGI (COLO 205 colon): 34.5 µM | GI50 (DU-145 prostate): 15.6 µM | TGI (DU-145 prostate): 52.1 µM | GI50 (EKVX NSCLC): 10.8 µM | TGI (EKVX NSCLC): 27.4 µM | GI50 (HCC-2998 colon): 15.1 µM | TGI (HCC-2998 colon): 32.7 µM | GI50 (HCT-116 colon): 3.36 µM | TGI (HCT-116 colon): 13.8 µM | GI50 (HCT-15 colon): 2.39 µM | TGI (HCT-15 colon): 15.3 µM | GI50 (HL-60(TB) leukemia): 15.4 µM | TGI (HL-60(TB) leukemia): 54 µM | GI50 (HOP-62 NSCLC): 4.48 µM | TGI (HOP-62 NSCLC): 18.6 µM | GI50 (HOP-92 NSCLC): 11.5 µM | TGI (HOP-92 NSCLC): 30.8 µM | GI50 (HS 578T breast): 7.2 µM | TGI (HS 578T breast): 66.3 µM | GI50 (HT29 colon): 5.23 µM | TGI (HT29 colon): 19.2 µM | GI50 (IGROV1 ovarian): 12.5 µM | TGI (IGROV1 ovarian): 28.5 µM | GI50 (K-562 leukemia): 4.27 µM | TGI (K-562 leukemia): > 100 µM | GI50 (KM12 colon): 12.5 µM | TGI (KM12 colon): 56 µM | GI50 (LOX IMVI melanoma): 4.1 µM | TGI (LOX IMVI melanoma): 16.6 µM | GI50 (M14 melanoma): 11.6 µM | TGI (M14 melanoma): 28 µM | GI50 (MALME-3M melanoma): 8.77 µM | TGI (MALME-3M melanoma): 21.6 µM | GI50 (MCF7 breast): 4.6 µM | TGI (MCF7 breast): 23 µM | GI50 (MDA-MB-231 breast): 3.42 µM | TGI (MDA-MB-231 breast): 13.6 µM | GI50 (MDA-MB-435): 11.1 µM | TGI (MDA-MB-435): 27.8 µM | GI50 (MDA-MB-468 breast): 9.09 µM | TGI (MDA-MB-468 breast): 23.6 µM | GI50 (MOLT-4 leukemia): 4.29 µM | TGI (MOLT-4 leukemia): > 100 µM | GI50 (NCI-H226 lung): 17.4 µM | TGI (NCI-H226 lung): 37.2 µM | GI50 (NCI-H23 lung): 4.2 µM | TGI (NCI-H23 lung): 18.4 µM | GI50 (NCI-H460 lung): 3.96 µM | TGI (NCI-H460 lung): 19.8 µM | GI50 (NCI-H522 lung): 11.8 µM | TGI (NCI-H522 lung): 27.5 µM | GI50 (NCI/ADR-RES ovarian): 3.53 µM | TGI (NCI/ADR-RES ovarian): 27.5 µM | GI50 (OVCAR-3 ovarian): 8.75 µM | TGI (OVCAR-3 ovarian): 30.4 µM | GI50 (OVCAR-4 ovarian): 5.68 µM | TGI (OVCAR-4 ovarian): 26.6 µM | GI50 (OVCAR-5 ovarian): 10.2 µM | TGI (OVCAR-5 ovarian): 23.9 µM | GI50 (OVCAR-8 ovarian): 4.72 µM | TGI (OVCAR-8 ovarian): 33.2 µM | GI50 (PC-3 prostate): 9.49 µM | TGI (PC-3 prostate): 91 µM | GI50 (RPMI-8226 leukemia): 10.6 µM | TGI (RPMI-8226 leukemia): > 100 µM | GI50 (RXF 393 renal): 7.77 µM | TGI (RXF 393 renal): 22.5 µM | GI50 (SF-268 CNS): 8.11 µM | TGI (SF-268 CNS): 49.5 µM | GI50 (SF-295 CNS): 11.4 µM | TGI (SF-295 CNS): 26.1 µM | GI50 (SF-539 CNS): 2.64 µM | TGI (SF-539 CNS): 8.66 µM | GI50 (SK-MEL-2 melanoma): 17 µM | TGI (SK-MEL-2 melanoma): 35 µM | GI50 (SK-MEL-28 melanoma): 10.2 µM | TGI (SK-MEL-28 melanoma): 22.3 µM | GI50 (SK-MEL-5 melanoma): 15.2 µM | TGI (SK-MEL-5 melanoma): 30.1 µM | GI50 (SK-OV-3 ovarian): 18.9 µM | TGI (SK-OV-3 ovarian): 38.5 µM | GI50 (SN12C renal): 3.73 µM | TGI (SN12C renal): 16.5 µM | GI50 (SNB-19 CNS): 17.3 µM | TGI (SNB-19 CNS): 42.3 µM | GI50 (SNB-75 CNS): 10.5 µM | TGI (SNB-75 CNS): 33.3 µM | GI50 (SR leukemia): 8.17 µM | TGI (SR leukemia): > 100 µM | GI50 (SW-620 colon): 5.53 µM | TGI (SW-620 colon): 26 µM | GI50 (T-47D breast): 11 µM | TGI (T-47D breast): 54.2 µM | GI50 (TK-10 renal): 19.6 µM | TGI (TK-10 renal): 36.1 µM | GI50 (U251 CNS): 4.09 µM | TGI (U251 CNS): 18.2 µM | GI50 (UACC-257 melanoma): 16.7 µM | TGI (UACC-257 melanoma): 33.5 µM | GI50 (UACC-62 melanoma): 9.81 µM | TGI (UACC-62 melanoma): 22.7 µM | GI50 (UO-31 renal): 12.3 µM | TGI (UO-31 renal): 24.8 µM
